Reference: publication PMC9334755 (Cancer Biology & Medicine, 2021)

What was measured:
[1] = biological target: T1, BTK wild-type (Homo sapiens, UniProt Q06187); assay: Fluorescent labelling of wild-type BTK in HEK293 cells; format: cell-based; conditions: 1 h
T1 construct: expressed in transfected cells; host or cells: HEK293 (methods list HEK293T)
From the text: (§1) The antibodies to β-actin (5125), poly(ADP-ribose) polymerase (PARP) (9532S), cleaved caspase-3 (9661S), BTK (8547), PLCγ2(55512), ERK1/2 (9107), phospho-PLCγ2 (Tyr1217) (3871), phospho-BTK (Tyr223) (87457), and ERK1/2 pT202/pY204 (4377) were purchased from Cell Signaling Technology. An Annexin V-PE Apoptosis Detection Kit (555763), and PE mouse anti-human CD69 (555531), PE mouse anti-human CD3 (555340), and PE mouse anti-human CD19 (561741) were purchased from BD Bioscience. Dynabeads® Human T-Activator CD3/CD28 (11161D) was purchased from Life Technology. Goat anti-human IgM F(ab)2 (2022) was purchased from SouthernBiotech. An HTRF® KinEASE™-TK Kit (62TK0PEC) was purchased from Cisbio. […]
(§2) Cells were treated as indicated before the addition of a fluorescent probe (FL-SY-1530). […] After scanning, the gels were detected with Western blot.
(§3) Figure 2 Irreversible targeting of BTK by SY-1530. […] (B) The content of the compounds was measured with LC-MS/MS after incubation with BTK for 4 h. […] (D) DOHH2 cells were treated with various concentrations of FL-SY-1530 for 1 h, after which cells were lysed and analyzed by SDS-PAGE with the indicated antibodies and fluorescent gel scanning with a Typhoon imaging system. […] (F) HEK293 cells expressing wild-type or C481A mutant BTK were treated with FL-SY-1530 or FL-ibrutinib for 1 h, and the cells were then lysed and analyzed. […]

[2] = biological target: T2, BTK C481A mutant (Homo sapiens, UniProt Q06187, C481A); assay: Fluorescent labelling of BTK C481A mutant in HEK293 cells; format: cell-based; conditions: 1 h
T2 construct: expressed in transfected cells; host or cells: HEK293 (methods list HEK293T)
T2 sequence (Q06187 whole entry C481A): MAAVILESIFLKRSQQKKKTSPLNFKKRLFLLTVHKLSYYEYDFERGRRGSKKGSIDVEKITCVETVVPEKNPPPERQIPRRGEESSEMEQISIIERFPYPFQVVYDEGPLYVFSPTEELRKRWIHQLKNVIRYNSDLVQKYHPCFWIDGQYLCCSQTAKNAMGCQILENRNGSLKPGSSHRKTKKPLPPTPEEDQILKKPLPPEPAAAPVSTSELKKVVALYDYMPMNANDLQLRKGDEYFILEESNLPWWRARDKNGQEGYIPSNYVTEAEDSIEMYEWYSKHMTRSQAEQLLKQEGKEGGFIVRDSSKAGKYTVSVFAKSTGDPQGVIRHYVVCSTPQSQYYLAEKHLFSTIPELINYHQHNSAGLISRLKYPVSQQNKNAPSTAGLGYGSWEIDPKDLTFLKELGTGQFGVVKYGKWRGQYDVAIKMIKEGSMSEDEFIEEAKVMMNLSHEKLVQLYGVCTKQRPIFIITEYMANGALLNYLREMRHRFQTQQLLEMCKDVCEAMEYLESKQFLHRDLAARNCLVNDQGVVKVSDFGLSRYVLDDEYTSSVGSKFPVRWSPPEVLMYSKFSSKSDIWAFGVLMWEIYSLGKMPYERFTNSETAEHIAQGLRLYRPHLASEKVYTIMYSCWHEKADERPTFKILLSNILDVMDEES
From the text: as §1, §2, §3

[3] = tested on: TMD8; assay: Cell viability assay (CellTiter-Blue), TMD8; format: cell-based, human; conditions: Homo sapiens, TMD8, read-out: IC50 (nM), growth of TMD8
Experimental: (§4) Cells were seeded on 96-well plates (9,000 cells/well), cultured at 37 °C in 5% CO2 overnight, and incubated with different concentrations of compounds for 3 or 7 days. Then the cells were stained with CellTiter-Blue® reagent (Promega) for 4 h at 37 °C. The fluorescence signals were detected with a FlexStation 3, and the IC50 values of each compound were determined with GraFit software (Version 6.0).

[4] = tested on: B cell; assay: Cell viability assay (CellTiter-Blue), human B cells; format: cell-based; conditions: B-cell, read-out: IC50 (nM), growth of B cell
Experimental: as §4
(§5) CD19^+ B (>80% purity) and CD3^+ T (>90% purity) cells were purified with human B cell enrichment cocktail and human T cell enrichment cocktail (Stem Cell Technology), respectively. Cells were seeded on 12-well plates and incubated with different concentrations of BTK inhibitors for 1 h. B cells were stimulated with 50 µg/mL anti-human IgM F(ab′)2, and T cells were stimulated with 50 µg/mL anti-CD3/CD28 beads overnight. In the washout groups, the cell medium containing the indicated inhibitors was replaced with fresh medium before stimulation. Then cells were then incubated with anti-human CD69 for 1 h and analyzed with a Guava flow cytometer.

[5] = tested on: human peripheral T cells; assay: CD69 up-regulation in T cells after anti-CD3/CD28 stimulation; format: cell-based
Experimental: as §5
(§6) Figure 4 SY-1530 blocks B-cell receptor signaling and induces apoptosis. (A–D) Human B and T cells were purified and incubated with different concentrations of BTK inhibitors for 1 h. B cells were stimulated with 50 μg/mL anti-human IgM F(ab′)2, and T cells were stimulated with 50 μg/mL anti-CD3/CD28 beads overnight directly or after washout of BTK inhibitors before stimulation. The percentage of CD69 positive cells was analyzed by flow cytometry. Data are shown as the mean ± SEM (n = 3). Statistical analysis was performed with Student’s t-test (*P < 0.05, **P < 0.01, ***P < 0.001). (E) Pfeiffer cells and Romas cells were preincubated with different concentrations of compounds for 1 h, washed with PBS, and then stimulated with anti-IgM/anti-IgG (10 μg/mL) for 10 min. Cells were lysed and analyzed by Western blot with the indicated antibodies. (F) Pfeiffer cells were treated with various concentrations of SY-1530 for 24 h. The cells were stained with both PE-Annexin and 7-AAD and analyzed by flow cytometry. Data are shown as the mean ± SEM (n = 3). Statistical analysis was performed with Student’s t-test (*P < 0.05, **P < 0.01). (G) Pfeiffer cells were incubated with BTK inhibitors in the presence of z-VAD-fmk (caspase inhibitor) or DMSO for 24 h. Cells were lysed and analyzed with specific antibodies.

[6] = tested on: human peripheral B cells; assay: CD69 up-regulation in B cells after anti-IgM stimulation; format: cell-based
Experimental: as §5, §6

[7] = tested on: T cell; assay: Cell viability assay (CellTiter-Blue), human T cells; format: cell-based; conditions: T-cell, read-out: IC50 (nM), growth of T cell
Experimental: as §4, §5

[8] = tested on: TMD8 xenografts; assay: TMD8 tumor xenograft in SCID mice; format: in vivo
Experimental: TMD8 cells (1.0 × 10^7 cells in 100 µL of serum-free medium containing 40% Matrigel) were injected subcutaneously into SCID mice (6–8 weeks of age), and the tumor volume was monitored twice per week. […] The compounds were formulated in 0.5% methylcellulose containing 0.1% sodium lauryl sulfate. Tumor size and body weight were measured twice per week. All experiments were approved by the institutional animal care and use committee of Shouyao Holdings and were performed in accordance with the guidelines in the U.S. National Institutes of Health Guide for the Care and Use of Laboratory Animals (Approval No. CTA-2015063).
Figure 5 SY-1530 inhibits B-cell malignancy in vivo. (A–D) TMD8 cells were injected subcutaneously into SCID mice (6–8 weeks of age; 8 mice per group). […] Tumor size (A) and body weight (B) were measured […]. On the last day, mice were sacrificed 2.5 h after administration. LC-MS/MS was performed to measure the concentration of SY-1530 in plasma (C), and tumor samples were collected and analyzed with Western blot (D). QD represents administration once daily. Data are shown as mean ± SEM. Statistical analysis was performed with two-way analysis of variance (*P < 0.05; **P < 0.01; ***P < 0.001). […] Tumor size (E), body weight (F), SY-1530 concentration in the plasma (G), and protein expression in tumors (H) were measured. Data are shown as mean ± SEM. Statistical analysis was performed with two-way analysis of variance (*P < 0.05; **P < 0.01; ***P < 0.001).

[9] = tested on: Pfeiffer; assay: Cell viability assay (CellTiter-Blue), Pfeiffer; format: cell-based, human; conditions: Homo sapiens; Pfeiffer cells; read-out: IC50 (nM), growth of Pfeiffer
Experimental: as §4

T1 sequence (Q06187 whole entry): as the sequence (Q06187 whole entry C481A) above, with A481C counted along it

Compound | Binding of labelled compound to wild-type BTK [1] | Binding of labelled compound to BTK C481A mutant [2] | IC50 [3] [nM] | IC50 [4] [nM] | Up-regulation of CD69 in T cells ([5]; after washout of BTK inhibitors) | CD69 up-regulation after T cell receptor stimulation ([5]; continuous exposure, 10 µM) | Up-regulation of CD69 in B cells after anti-IgM ([6]; continuous exposure, 10 nM) | Up-regulation of CD69 in B cells after anti-IgM ([6]; inhibitors washed out before BCR stimulation) | IC50 [7] [nM] | Mouse bodyweight ([8]; BID groups) | Tumor growth versus vehicle treated group ([8]; BID, SY-1530 30 or 10 mg/kg, ibrutinib 30 mg/kg) | IC50 [9] [nM]
CC1=CC(C)=[N+]2C1=Cc1ccc(CCC(=O)NCCN3CCN(CC=CC(=O)N4CCC(n5nc(-c6ccc(Oc7ccccc7)cc6)c(C(N)=O)c5N)C4)CC3)n1[B-]2(F)F (centres unmarked) [FL-SY-1530] | bound the wild-type BTK | not the C481A mutant |  |  |  |  |  |  |  |  |  | 
CC1=CC(C)=[N+]2C1=Cc1ccc(CCC(=O)NCCN3CCN(CC=CC(=O)N4CCCC(n5nc(-c6ccc(Oc7ccccc7)cc6)c6c(N)ncnc65)C4)CC3)n1[B-]2(F)F (centres unmarked) [FL-ibrutinib, reference compound] | bound the wild-type BTK | not the C481A mutant |  |  |  |  |  |  |  |  |  | 
C=CC(=O)N1CCC[C@@H](n2nc(-c3ccc(Oc4ccccc4)cc3)c3c(N)ncnc32)C1 [ibrutinib, reference compound] |  |  | 17.3 | 0.85 | not affected | significantly abrogated | completely abolished | blocked | 1000 to 10000 | moderate decrease | dramatically lower | 45.9
